Laboratory results as given in publication PMC3661587, “Estrone-3-Sulphate, a Potential Novel Ligand for Targeting Breast Cancers” (PLoS ONE, 2013).
Where two headings read alike, the source gives them in different places.

Conditions: mouse, in vivo
Method: Solid phase extraction (SPE) and HPLC analysis of plasma were performed as previously described with minor modifications, [23]. SPE was performed using Sep-Pak C18 columns (Waters, Mississauga, ON). The column was activated using methanol, followed by water. 100 µL of plasma was then loaded on to the activated column. This was followed by successive washing steps with water and hexane. The analyte was eluted from the column using methanol and then dried under a stream of N2. The sample was reconstituted in DMSO:Methanol 1∶1 v/v prior to HPLC analysis. […] The radioactivity in each eluate was determined by liquid scintillation counting. […] The methanol eluates were used for HPLC analysis.
Separation was performed using a Waters C18 reversed-phase HPLC column (XTerra RP-C18, 5 µm, 4.6×250 mm I.D.) Analytes were eluted using an isocratic-gradient of 20 mM ammonium sulphate buffer (solvent A) and methanol (solvent B). The mobile phase consisted of solvent A/solvent B; 60/40% for 0–5 min, followed by a linear gradient of 60/40% to 25/75% for 5–45 and 25/75% for 45–50 min at a flow rate of 1.0 mL/min and UV detection at 280 nm. The HPLC eluate from the UV detector was collected every minute for over 50 min in eppendorf tubes and radioactivity in each sample was determined.

Structure (SMILES)	% of total radioactivity in plasma (2 h) [%]	% of total radioactivity in plasma (6 h) [%]	% of total radioactivity in plasma (48 h) [%]
C[C@]12CC[C@@H]3c4ccc(O)cc4CC[C@H]3[C@@H]1CC[C@@H]2O [Estradiol, estradiol]	2.2±1.23	3.2±0.2	3.2±0.45
C[C@]12CC[C@@H]3c4ccc(O)cc4CC[C@H]3[C@@H]1CCC2=O [Estrone, estrone]	1.02±0.24	1.7±0.8	
